# Test results from patent US20230312587A1, “PTERIDINONE COMPOUNDS AND USES THEREOF” (Vertex Pharmaceutical Incorporated, priority 2018, published 2023).
# Assays:
# Colo-205 cells = assay: Calcium flux assay (FLIPR Calcium 5); assay type: cell-based; details: Homo sapiens, COLO 205, 0.6 h, FLIPR Calcium 5, measured over 36 minutes
# Experimental: Compounds described herein induced ER stress by causing intracellular calcium flux. Calcium flux was measured in Colo-205 cells using the FLTPR® Calcium 5 Assay Kit according to manufacter's protocol (Molecular Devices, Cat. #R8186) on a FLIPR3 system (Molecular Devices). Calcium flux is measured over 36 minutes. The Colo-205 calcium flux assay data are summarized in Table 47: A<0.6 μM; 0.6 μM≤B<2.0 μM; 2.0 μM≤C<10.0 μM; D≥10.0 μM.
# [1] = test system: β-catenin-TCF-mediated reporter transcription activity in Colo 205 cells; assay: Colo 205 reporter assay (TCF/LEF luciferase); assay type: cell-based; details: Homo sapiens, COLO 205, 5 h, Colo 205 TCF/LEF luciferase reporter, five hours after addition of compound; read-out: TCF reporter Colo205 IC50
# Method in brief: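 Luciferase signal from a TCF/LEF-driven reporter, stably integrated in Colo 205 colon cancer cells, was measured 5 h after compound addition.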
# [2] = target: HEK293 membranes over-expressing WFS-1 (Homo sapiens (Human), UniProt O76024); assay: Radioligand displacement assay (tritiated Compound 136 probe); assay type: binding; details: displacement of tritiated Compound 136
# HEK293 membranes over-expressing WFS-1, sequence (O76024 whole entry): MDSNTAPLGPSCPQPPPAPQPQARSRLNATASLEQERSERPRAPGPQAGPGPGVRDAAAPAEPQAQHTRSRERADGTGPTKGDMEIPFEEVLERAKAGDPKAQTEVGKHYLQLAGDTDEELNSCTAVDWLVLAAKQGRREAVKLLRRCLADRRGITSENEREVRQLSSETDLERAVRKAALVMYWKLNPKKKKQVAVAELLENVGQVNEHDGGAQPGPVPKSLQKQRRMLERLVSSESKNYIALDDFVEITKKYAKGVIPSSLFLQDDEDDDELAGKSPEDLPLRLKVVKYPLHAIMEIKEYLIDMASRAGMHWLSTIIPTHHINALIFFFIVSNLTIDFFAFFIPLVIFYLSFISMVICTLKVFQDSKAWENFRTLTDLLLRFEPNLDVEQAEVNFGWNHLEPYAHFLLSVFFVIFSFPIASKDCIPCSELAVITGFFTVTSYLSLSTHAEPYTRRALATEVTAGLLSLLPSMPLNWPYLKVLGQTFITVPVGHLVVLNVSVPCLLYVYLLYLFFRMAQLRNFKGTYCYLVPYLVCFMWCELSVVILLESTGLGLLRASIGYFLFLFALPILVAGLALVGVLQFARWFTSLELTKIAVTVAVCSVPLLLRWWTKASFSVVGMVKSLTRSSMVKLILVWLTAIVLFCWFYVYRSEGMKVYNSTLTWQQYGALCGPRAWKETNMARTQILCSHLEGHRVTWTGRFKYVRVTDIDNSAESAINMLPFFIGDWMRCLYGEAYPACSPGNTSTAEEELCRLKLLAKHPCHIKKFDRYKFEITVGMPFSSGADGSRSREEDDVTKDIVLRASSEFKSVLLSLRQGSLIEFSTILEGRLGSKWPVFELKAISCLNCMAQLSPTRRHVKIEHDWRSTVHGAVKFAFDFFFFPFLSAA
# Experimental: Cell pellets were re-suspended in 15 times packed cellular volume in 4° C. hypotonic lysis buffer (10 mM HEPES, pH 7.5 containing 1×Protease inhibitor, 0.5 mM EDTA and 2 mM DTT). Re-suspended cells were homogenized with 6-8 strokes in a dounce homogenizer kept on ice. Lysates were centrifuged at 500×G for 15 minutes at 4° C. without brake to decelerate rotor. Following centrifugation, remove the supernatant to a fresh tube and place on ice (Supernatant 1). Repeat the above steps on the lysed cell pellet using 0.5 the original volume of hypotonic lysis buffer and remove the 500× G supernatant (Supernatant 2) and combine with Supernatant 1. Transfer the combined supernatants to a 45-Ti ultracentrifuge tube and centrifuge at 100,000× G for 30 minutes. Following ultracentrifugation, carefully remove the supernatant and discard. Resuspend the 100,000× G pellet in cold resuspension buffer (10 mM HEPES, pH 7.5, 300 mM NaCl containing 1× Protease inhibitor, 1× EDTA and 2 mM DTT). Centrifuge sample at 500× G for 10 minutes with no brake and remove any cloudy, flocculent material. Resuspend pellet in resuspension buffer to approximately 2 mg/mL of protein concentration for use in radioligand binding assay and immunoblotting.
# The binding affinities of compounds were determined by measuring the competitive displacement of a tritiated Compound 136 probe from purified HEK293 membranes over-expressing WFS-1. The data for the radioligand displacement assay are summarized in Table 47: A<0.06 μM; 0.06 μM≤B<0.6 μM; 0.6 μM≤C<3.0 μM; D≥3.0 μM.
# The probe Kd was determined by titrating tritiated probe under the standard assay conditions plus and minus excess unlabeled probe and fitting the resulting data to a “One site—Total and nonspecific binding” model in Graphpad Prism, version 6.0, San Diego, CA, US. Initially, 0.25 μl of compound dissolved in DMSO at varying concentrations was dispensed to a 384 well plate. Membrane and probe were both prepared at 2× their final concentration in 1× assay buffer as described above. 25 μL of membrane was added to the wells and incubated for 10 minutes. 25 μL of diluted probe was then added to the wells. The assay was incubated for 90 minutes at room temperature. The entire assay volume was then transferred to Millipore GF/B 384-well plates pretreated with 15 μL 0.5% PEI. The filter plates were washed 3× with 75 μL 25 mM TRIS, ph7.5, 0.1% BSA and then dried overnight. Following addition of 45 μL UltimaGold scintillant, the samples were counted in a Perkin Elmer Topcount. The radioactivity remaining is a measure of bound probe. From the bound probe vs concentration of compound titration curve, the IC50 is determined by fitting the data to a standard 3 parameter IC50 model using either Graphpad Prism, version 6.0, San Diego, CA, US, or using GeneData Analyzer, Basel, Switzerland.
# [3] = test system: Colo205-TCF/LEF-Luciferase (Luc) tumor; assay: In vivo inhibition of TCF/LEF reporter activity in Colo-205 tumors; design: concentration or dose not given beside the values; details: TCF/LEF luciferase reporter in Colo-205 tumors, nu/nu mice, oral gavage
# Experimental: Colo205-TCF/LEF-Luciferase (Luc) tumor cells were expanded in complete DMEM cell culture media [DMEM (Life Technologies, product #11960-051) media supplemented with 10% FBS (Hyclone, catalog #SH30071.03), antimycotic/antibiotic (Life Technologies, product #15240-062), and Glutamax (Life Technologies, product #35050-061)] with 1 ug/ml puromycin. After reaching confluency/high density, the loosely attached cells in media were transferred from the flask to 50 ml conical tubes. Tumor cells adhered to plastic were detached with trypsin and combined with cells in the conical tubes. The tumor cells were triturated, counted, and pelleted by centrifugation. Cell pellets were resuspended in 0.9% injectable saline (6×10^7 cells/ml). A 50 ul volume (3×10^6 cells) was injected subcutaneously in the flanks of 4-6 wk old female nu/nu mice (Charles River Laboratories). Approximately 13-16 days after implantation, tumors between 200-500 mm^3 were selected (based on caliper measurements and applying the formula […]) and randomized into groups of n=4. Mice were dosed by oral gavage with compound dissolved in 1:3:5:1 EtOH:DMSO:PEG-400:H2O at a rate of 10 ml/kg or 1:3:5:1 EtOH:DMSO:PEG-400:H2O alone (Vehicle Control). Tumors were collected from mice euthanized by CO2 inhalation and snap frozen in liquid nitrogen. Tumors were stored in a −80 degrees C. freezer until they were processed.
# Tumors were thawed on ice and homogenized in cold Lysis Buffer (20 mM Tris-HCl (pH 7.5), 150 mM NaCl, 1 mM Na2EDTA, 1 mM EGTA, 1% Triton, 2.5 mM sodium pyrophosphate, 1 mM beta-glycerophosphate, 1 mM Na3VO4, 1 μg/ml leupeptin, 0.05% SDS) using a closed tissue grinder system (Fisher Scientific, Cat #02-542-09) on ice according to manufacturer's instructions. For 100 mg of tumor, 500 uL of Lysis Buffer was used. Tumor lysate was transferred to a pre-chilled microcentrifuge tube and centrifuged at 10,000×g for 10 minutes at 4 degrees C. Supernatant was transferred to a new pre-chilled microcentrifuge tube and was used immediately for analysis of protein content and luciferase activity.
# Protein content of tumor lysate supernatant was determined using the BCA assay (Life Technologies Cat #23225). Luciferase activity of tumor lysate supernatant was determined by addition of Steady-Glo luminescence reagent (Promega, Cat #E2550) according to manufacturer's instructions and measurement on a Pherastar luminescence plate reader (BMG Labtech). Luciferase activity was normalized to protein content.
SMILES,EC50 (Colo-205 cells) [nM],IC50 [1] [nM],IC50 [2] [nM],Percent Remaining Activity at 8 hrs after Dosing [3] [%]
"CO[C@H](C)[C@H]1C(=O)Nc2c(C)nc(N[C@H]3C[C@H](Oc4ccc(C(F)(F)F)nc4)C3)nc2N1C [Compound 684, (S)-7-((R)-1-methoxyethyl)-4,8-dimethyl-2-((trans-3-((6-(trifluoromethyl)pyridin-3-yl)oxy)cyclobutyl)amino)-7,8-dihydropteridin-6(5H)-one]",< 600,< 300,< 60,
"Cc1nc(NCc2cnn(Cc3cnc(C(C)C)o3)c2)nc2c1NC(=O)[C@H](C(C)C)N2C [Compound 517, (S)-7-isopropyl-2-(((1-((2-isopropyloxazol-5-yl)methyl)-1H-pyrazol-4-yl)methyl)amino)-4,8-dimethyl-7,8-dihydropteridin-6(5H)-one]",,< 300,,93
"CO[C@H](C)[C@H]1C(=O)Nc2c(C)nc(NCc3cnn(Cc4ccc(F)cc4)c3)nc2N1C [Compound 658, (S)-2-(((1-(4-fluorobenzyl)-1H-pyrazol-4-yl)methyl)amino)-7-((R)-1-methoxyethyl)-4,8-dimethyl-7,8-dihydropteridin-6(5H)-one]",,< 300,,62
"Cc1nc(NCc2cnn(Cc3ccnc(N(C)C)c3)c2)nc2c1NC(=O)[C@H](C1CC1)N2C [Compound 466, (S)-7-cyclopropyl-2-(((1-((2-(dimethylamino)pyridin-4-yl)methyl)-1H-pyrazol-4-yl)methyl)amino)-4,8-dimethyl-7,8-dihydropteridin-6(5H)-one]",,< 300,,101
"Cc1nc(NCc2cnn(Cc3ccc(OC(C)C)nc3)c2)nc2c1NC(=O)[C@H](C)N2C [Compound 135, (7S)-2-(((1-((6-isopropoxypyridin-3-yl)methyl)-1H-pyrazol-4-yl)methyl)amino)-4,7,8-trimethyl-7,8-dihydropteridin-6(5H)-one]",,< 300,,43
"Cc1nc(N[C@H]2C[C@@H](Nc3ncc(C#N)cn3)C2)nc2c1NC(=O)[C@H](C(C)C)N2C [Compound 717, 2-((cis-3-(((S)-7-isopropyl-4,8-dimethyl-6-oxo-5,6,7,8-tetrahydropteridin-2-yl)amino)cyclobutyl)amino)pyrimidine-5-carbonitrile]",2000 to 10000,1000 to 5000,60 to 600,
"Cc1nc(N[C@H]2C[C@H](Oc3cc(F)c(F)c(F)c3)C2)nc2c1NC(=O)[C@H](CO)N2C [Compound 677, (S)-7-(hydroxymethyl)-4,8-dimethyl-2-((trans-3-(3,4,5-trifluorophenoxy)cyclobutyl)amino)-7,8-dihydropteridin-6(5H)-one]",,< 300,60 to 600,
"CC[C@H]1C(=O)Nc2c(C)nc(N[C@H]3C[C@H](Oc4ccc(C(F)(F)F)nc4)C3)nc2N1C [Compound 686, (S)-7-ethyl-4,8-dimethyl-2-((trans-3-((6-(trifluoromethyl)pyridin-3-yl)oxy)cyclobutyl)amino)-7,8-dihydropteridin-6(5H)-one]",< 600,< 300,< 60,
"Cc1nc(N[C@H]2C[C@@H](Nc3ccc(C#N)cn3)C2)nc2c1NC(=O)[C@H](C(C)C)N2C [Compound 716, 6-((cis-3-(((S)-7-isopropyl-4,8-dimethyl-6-oxo-5,6,7,8-tetrahydropteridin-2-yl)amino)cyclobutyl)amino)nicotinonitrile]",600 to 2000,< 300,< 60,
"Cc1nc(N[C@H]2C[C@@H](Cn3nccc3C(F)(F)F)C2)nc2c1NC(=O)[C@H](COC(C)(C)C)N2C [Compound 723, (S)-7-(tert-butoxymethyl)-4,8-dimethyl-2-((cis-3-((5-(trifluoromethyl)-1H-pyrazol-1-yl)methyl)cyclobutyl)amino)-7,8-dihydropteridin-6(5H)-one]",600 to 2000,< 300,60 to 600,
"Cc1nc(N[C@H]2C[C@H](Oc3ccc(C(F)(F)F)nc3)C2)nc2c1NC(=O)[C@H](C(C)C)N2C [Compound 685, (S)-7-isopropyl-4,8-dimethyl-2-((trans-3-((6-(trifluoromethyl)pyridin-3-yl)oxy)cyclobutyl)amino)-7,8-dihydropteridin-6(5H)-one]",< 600,< 300,< 60,
"Cc1nc(N[C@H]2C[C@@H](CNc3cnc(C(F)(F)F)cn3)C2)nc2c1NC(=O)[C@H](C(C)C)N2C [Compound 711, (S)-7-isopropyl-4,8-dimethyl-2-((cis-3-(((5-(trifluoromethyl)pyrazin-2-yl)amino)methyl)cyclobutyl)amino)-7,8-dihydropteridin-6(5H)-one]",< 600,< 300,< 60,
"Cc1nc(N[C@@H](C)c2cnn(Cc3ccc(C(F)(F)F)nc3)c2)nc2c1NC(=O)[C@H](C)N2C [Compound 216, (7S)-4,7,8-Trimethyl-2-(((S)-1-(1-((6-(trifluoromethyl)pyridin-3-yl)methyl)-1H-pyrazol-4-yl)ethyl)amino)-7,8-dihydropteridin-6(5H)-one]",≥ 10000,≥ 5000,≥ 3000,
"Cc1nc(N[C@H]2C[C@H](Oc3cncc(C(F)(F)F)c3)C2)nc2c1NC(=O)[C@H](C)N2C [Compound 315, (7S)-4,7,8-trimethyl-2-((trans-3-((5-(trifluoromethyl)pyridin-3-yl)oxy)cyclobutyl)amino)-7,8-dihydropteridin-6(5H)-one]",,< 300,,
